The results in this text go back to PubChem BioAssay AID1996.

≈ marks a conversion by molar mass, not a printed value. Some results are limits rather than exact numbers.

For this series the following is noted: buffer; pH 7.4; 200.0 µM.
A word on the solubility (kinetic): it is solubility judged after dilution from a stock solution rather than from solid. Consider `Cl.NCCC(=O)N1c2ccccc2Sc2ccc(Cl)cc21`, for which the solubility (kinetic) was determined as 33.7 µg/mL.

`O=C(COc1ccc2ccc(=O)oc2c1)Nc1nccs1` showed a kinetic solubility of 11.3 µg/mL (≈ 37.4 µM).

Compound `O=C(NC(=S)NC1CCSC1=O)c1cccc([N+](=O)[O-])c1` (centres undefined) returned a solubility (kinetic) of 43.2 µg/mL (≈ 133 µM).

Compound `COc1ccc(CCNC(=O)C(=O)NCc2cccs2)cc1OC` showed a solubility (kinetic) of 21.4 µg/mL (≈ 61.4 µM). In the case of `Cc1ccc(NC(=O)CSc2nc3sc(C)cc3c(=O)n2C)cc1`, the solubility (kinetic) is below 0.3 µg/mL.

For the compound `Cc1cnc(C(=O)OCC(=O)N2C(C)CCCC2C)cn1` (centres undefined), the solubility (kinetic) was above 43.7 µg/mL. To `O=C1c2ccccc2C(=O)N1c1cccc2ccccc12` belongs 13.7 µg/mL (≈ 50.1 µM); to `O=C(CN1C(=O)NC(CCc2ccccc2)C1=O)Nc1ccc(F)c(F)c1F` (centres undefined), 4.5 µg/mL (≈ 11.5 µM); to `O=C(NCc1ccco1)c1ccc(NS(=O)(=O)c2cccc(F)c2)cc1`, above 56.2 µg/mL. `COC(=O)c1cc(S(=O)(=O)N(C)C2CCCCC2)cn1C`: the kinetic solubility is 45 µg/mL (≈ 143 µM). `Cc1ccc(CNC(=O)COC(=O)COc2ccc(C#N)cc2)cc1` displayed a solubility (kinetic) above 50.8 µg/mL.

As for `Cc1ccc(NC(=S)NCCC2=CCCCC2)cc1`, the kinetic solubility stood at 0.6 µg/mL (≈ 2.19 µM). The value for `COc1cccc(C(=O)NC2CC3CCC(C2)N3Cc2ccccc2)c1` (centres undefined) was 52.2 µg/mL (≈ 149 µM); that for `O=C(NC1CCC(c2ccccc2)CC1)c1cccnc1` (centres undefined) was 4.3 µg/mL (≈ 15.3 µM); that for `Cc1cc(C)cc(NC(=O)CN2C(=O)C3CC=CCC3C2=O)c1` (centres undefined) was above 46.9 µg/mL. On to `COc1cc(C(=O)NCCCc2ccccc2)cc(OC)c1OC`, for which the solubility (kinetic) is above 49.4 µg/mL. As for `Cc1ccc(OCC(=O)N2CCc3ccccc3C2)c([N+](=O)[O-])n1`, the solubility (kinetic) is above 49.1 µg/mL. The value for `O=C(NCCOC(=O)c1ccccc1)c1ccccc1` was above 40.4 µg/mL; that for `COc1ccc(CCNC(=O)c2oc3ccc(OC)cc3c2C)cc1` was 2.3 µg/mL (≈ 6.78 µM); that for `COc1ccc(CNC(=S)Nc2ccc(F)c(Cl)c2)cc1` was 1.8 µg/mL (≈ 5.54 µM). To `Cc1ccc(N=Cc2c(O)c3ccccc3oc2=O)cc1F` belongs below 0.6 µg/mL; to `Cc1ccnc(SC2CC(=O)N(c3ccc(F)cc3)C2=O)n1` (centres undefined), 38 µg/mL (≈ 120 µM). The value for `CN1CC(=O)N(CC(=O)Nc2ccc(OCc3ccccc3)cc2)C1=O` was 45.7 µg/mL (≈ 129 µM); that for `CC1CCN(C2=NC(=O)/C(=C/c3ccccc3F)S2)CC1` was 14.3 µg/mL (≈ 47 µM); that for `CN(C(=O)COc1ncnc2sccc12)C1CCCCC1` was above 45.8 µg/mL. On to `CC1=CC(C)(C)N(C(=O)CN2C(=O)CCC2=O)c2ccc(C)cc21`, for which the solubility (kinetic) is above 49 µg/mL. The value for `COc1ccc(/C=C2/N=C(SC)NC2=O)cc1OC` was 10.1 µg/mL (≈ 36.3 µM); that for `O=C(Nc1cccnc1)c1ccc(N2CCOCC2)c([N+](=O)[O-])c1` was 41.2 µg/mL (≈ 125 µM); that for `Nc1nnc(SCc2ccccc2F)s1` was above 36.2 µg/mL. `Cc1ccccc1OCCNCC(C)O.O=C(O)C(=O)O` (centres undefined) returned a kinetic solubility of 27 µg/mL. To `CN(C(=O)COC(=O)Cc1ccccc1[N+](=O)[O-])C1CCS(=O)(=O)C1` (centres undefined) belongs above 55.6 µg/mL; to `COc1ccc2cc(C#N)c(N3CCOCC3)nc2c1`, 4.2 µg/mL (≈ 15.6 µM). For `CC1(C)CC2CC(C)(CN2C(=O)COC(=O)c2ccc(NC(=O)CC#N)cc2)C1` (centres undefined), the solubility (kinetic) came to 7.6 µg/mL (≈ 19.1 µM). The value for `COc1ccc(C(=O)NCC(=O)OCC(=O)NC2CCCCCC2)cc1OC` was above 58.9 µg/mL; that for `Nc1cccc(C(=O)N/N=C/c2ccsc2)c1` was above 36.8 µg/mL. As for `CCCn1c2ccccc2c2cnn(CC(=O)O)c(=O)c21`, the kinetic solubility was above 42.8 µg/mL.

`O=C(CSc1nnc2ccccn12)NNC(=O)c1cccc(Cl)c1` returned a kinetic solubility above 54.3 µg/mL. Take `CC(C)CCC(C)NC(=O)c1ccc2nccnc2c1` (centres undefined): the solubility (kinetic) worked out at 34.6 µg/mL (≈ 128 µM). Turning to `CC(C)(C)NCCOc1ccc2ccccc2c1`, the solubility (kinetic) was found to be 26.8 µg/mL (≈ 110 µM).

The compound `CCCNC(=O)CN(C)CC(=O)Nc1ccccc1C#N` came in with a kinetic solubility above 43.3 µg/mL.

In turn, `CCCCNc1nc2cccnc2s1` came in with a kinetic solubility of 30.4 µg/mL (≈ 147 µM).

The compound `O=C(COc1cccnc1[N+](=O)[O-])Nc1ccc(Cl)cc1F` displayed a solubility (kinetic) of 4.6 µg/mL (≈ 14.1 µM).

`COc1cc(Oc2nc(C(F)(F)F)nc3ccccc23)ccc1C=O` had a kinetic solubility below 0.4 µg/mL. The value for `COc1ccc(S(=O)(=O)NCCc2c[nH]c3ccc(Cl)cc23)cc1` was 18.6 µg/mL (≈ 51 µM). The value for `CCCCN(C)Cc1cc(=O)oc2cc3c(cc12)CCCC3` was below 0.6 µg/mL; that for `COc1ccc(Cl)cc1C(=O)n1cnc2ccccc21` was above 43 µg/mL; that for `Cc1cccc(NC(=O)Cn2cc(C(=O)C3CC3)c3ccccc32)c1C` was 0.6 µg/mL (≈ 1.73 µM). On to `CCN1CCN(C(=O)CSc2nc(N)cc(N)n2)CC1`, for which the solubility (kinetic) is above 44.5 µg/mL.

In turn, `COc1ccc(-c2csc(Nc3ccccn3)n2)cc1OC` showed a solubility (kinetic) of 5.5 µg/mL (≈ 17.6 µM). The value for `Cc1ccccc1N1CCN(C(=O)NCc2cccc(Cl)c2)CC1` was 3.3 µg/mL (≈ 9.6 µM); that for `O=C(NCc1ccccn1)Nc1ccccc1C(F)(F)F` was above 44.3 µg/mL; that for `CC1=C(C(=O)c2ccccc2)C(c2ccc(O)cc2)NC(=S)N1` (centres undefined) was 21.8 µg/mL (≈ 67.2 µM). The value for `CCN(CC)C(=O)c1ccc(COc2ccc(Cl)c(C)c2)o1` was 10.7 µg/mL (≈ 33.3 µM); that for `CC1CCCN(CCC(=O)Nc2ccc(F)c(F)c2)C1` (centres undefined) was above 42.3 µg/mL; that for `CC(CN1C(C)CCCC1C)OC(=O)c1ccccc1F.Cl` (centres undefined) was above 49.5 µg/mL. To `COc1ccc(OC)c(CNc2ccc3c(c2)nc(C)n3C)c1` belongs 37.1 µg/mL (≈ 119 µM); to `CCCOc1ccc(/C=C2\SC(N)=NC2=O)cc1OC`, 2.5 µg/mL (≈ 8.55 µM). `CCc1ccc(OCC(O)CN2CCCC2)cc1.Cl` (centres undefined) displayed a kinetic solubility of 39.8 µg/mL. The value for `CCOc1ccccc1NC(=O)Cn1c(=O)oc2cc(Cl)ccc21` was 10.5 µg/mL (≈ 30.3 µM); that for `COc1ccc(CC(=O)OCc2csc(CC(=O)Nc3ccc(C)cc3)n2)cc1` was 4.8 µg/mL (≈ 11.7 µM); that for `CC(CC(=O)O)CC(=O)Nc1cc(C(F)(F)F)cc(C(F)(F)F)c1` (centres undefined) was above 53.6 µg/mL. To `CC(=O)N/C(=N/c1nc(C)cc(C)n1)Nc1ccc(C)cc1Cl` belongs 0.2 µg/mL (≈ 0.603 µM); to `CN(C)S(=O)(=O)c1cccc(COc2cccnc2[N+](=O)[O-])c1`, 12.1 µg/mL (≈ 35.9 µM). As for `COc1ccc(C(=O)NCc2ccc3c(c2)cc(C)n3C)cc1OC`, the kinetic solubility worked out at 4.7 µg/mL (≈ 13.9 µM).

`O=C(NCC1CCCCC1)c1cc2ccccc2cc1O` had a solubility (kinetic) of 9.7 µg/mL (≈ 34.2 µM).

Take `Br.CCCCCCCCCCn1ccc(=N)cc1`: the kinetic solubility was above 47.3 µg/mL. In turn, `O=C(NCC1CCCO1)c1cc2c(=O)[nH]c3ccccc3c2s1` (centres undefined) had a solubility (kinetic) of 2.6 µg/mL (≈ 7.92 µM). To `O=C1C(Cl)=C(N2CCCC2)C(=O)N1c1ccccc1F` belongs above 44.2 µg/mL; to `CCCCOC(=O)Nc1ccc(S(=O)(=O)Nc2nccs2)cc1`, 38.1 µg/mL (≈ 107 µM). In the case of `CN(C(=O)c1ccnn1C)C1CCCN(Cc2ccccc2F)C1` (centres undefined), the solubility (kinetic) is above 49.6 µg/mL.

`Cc1ccc(C(=O)C(C)Sc2nnc(N)s2)cc1` (centres undefined) came in with a solubility (kinetic) above 41.9 µg/mL.

With `COc1cc(C(F)(F)F)ccc1C(=O)NCCc1ccco1`, the kinetic solubility is 42.9 µg/mL (≈ 137 µM).

Turning to `CCCS(=O)(=O)N1CCN=C1SCc1ccc(F)cc1`, the kinetic solubility was above 47.5 µg/mL.

For `N#CC(CCN1CCOCC1)(c1ccccc1)c1ccccc1`, the kinetic solubility came to 43.1 µg/mL (≈ 141 µM). `CCCCn1c(SCC(N)=O)nc2sc3c(c2c1=O)CCC3` gave a solubility (kinetic) of 1.9 µg/mL (≈ 5.63 µM). The value for `CCC(Cc1ccccc1)NC(=O)/C=C/c1ccco1` (centres undefined) was 23.7 µg/mL (≈ 88 µM); that for `CCOc1ccccc1NS(=O)(=O)c1ccc2oc(=O)ccc2c1` was 43.6 µg/mL (≈ 126 µM); that for `CC(=O)Nc1cccc2c1C(=O)N(c1ccccc1OC(C)=O)C2=O` was above 50.7 µg/mL. `O=C(Nc1nccs1)c1cccc(NC(=O)C(F)(F)F)c1` showed a kinetic solubility of 38.8 µg/mL (≈ 123 µM). The value for `N#Cc1ccc(NC(=O)CN2CCCC2)cc1Cl` was above 39.6 µg/mL; that for `O=C(Nc1ccc2c(c1)CCC2)c1cccc(OC(F)F)c1` was 10.2 µg/mL (≈ 33.6 µM); that for `O=C(Nc1sc2c(c1C(=O)O)CCCC2)c1ccccc1Cl` was above 50.4 µg/mL. To `O=C(O)CCCC(=O)NCc1c(Cl)cccc1Sc1ccc(Cl)cc1` belongs above 59.7 µg/mL; to `Br.C1=C(c2ccco2)N2CCN=C2S1`, 38.8 µg/mL. To `CC(C)N(Cc1ccccc1)C(=O)COC(=O)c1cnc(Cl)c(Cl)c1` belongs 33.9 µg/mL (≈ 88.9 µM); to `COc1ccc2c(CC(=O)OCC(=O)NC(N)=O)coc2c1`, 18.1 µg/mL (≈ 59.1 µM); to `Cc1ccc(CONC(=O)c2ccc([N+](=O)[O-])cc2)cc1`, 2.1 µg/mL (≈ 7.34 µM). `Cc1ccccc1Cn1cc(C)c(=O)[nH]c1=O` showed a kinetic solubility of 29.5 µg/mL (≈ 128 µM). The value for `Cc1ncc(CN2CCC(CO)(CCOc3ccccc3)CC2)s1` was 48.2 µg/mL (≈ 139 µM); that for `CS(=O)(=O)N(CC(=O)N1CCN(Cc2ccccc2)CC1)c1cccc(F)c1` was 57.9 µg/mL (≈ 143 µM); that for `COc1cc(S(=O)(=O)N2CCOCC2)ccc1NC(=O)COC(=O)c1ccc(Cl)nc1` was 6.4 µg/mL (≈ 13.6 µM). To `Cc1ccc(C)n1-c1ccc(C(=O)NCc2ccncc2)cc1` belongs 38.3 µg/mL (≈ 125 µM). For `COC(=O)c1sccc1N/C=C(\C#N)S(=O)(=O)C(C)(C)C`, the solubility (kinetic) amounted to 2.3 µg/mL (≈ 7 µM).

For `NC(=S)Nc1ccc(F)c(F)c1F`, the kinetic solubility is above 30.9 µg/mL.

Compound `CN(CCN1CCOCC1)Cc1nc(-c2ccccc2)no1` showed a kinetic solubility above 45.4 µg/mL. Regarding `Cc1cc2sc3nc(=O)n(-c4ccccc4)c(=O)n3c2cc1C`, the kinetic solubility turned out to be 5.8 µg/mL (≈ 17.9 µM). The compound `COc1ccc(N2C(=O)c3ccccc3C2O)cc1` (centres undefined) yielded a kinetic solubility above 38.3 µg/mL. As for `c1ccc(C2CC(c3ccccc3)C(c3ccccc3)N2)cc1` (centres undefined), the solubility (kinetic) was determined as 8.4 µg/mL (≈ 28.1 µM). Compound `CN(CC(=O)N1CCCCC1)S(=O)(=O)c1ccc(Cl)cc1` returned a kinetic solubility of 47.5 µg/mL (≈ 144 µM). To `O=S(=O)(c1ccc2ccccc2c1)N1CCOCC1` belongs 20.2 µg/mL (≈ 72.8 µM); to `OCCN(CC#CCC(O)(c1ccccc1)C1CCCC1)CCO` (centres undefined), above 49.7 µg/mL; to `CC(=O)c1cccc(NC(=O)NCc2ccc3c(c2)OCO3)c1`, 9.2 µg/mL (≈ 29.5 µM).

In turn, `Cc1ccc(NC(=O)c2sc(N)nc2C)cc1` came in with a kinetic solubility above 37.1 µg/mL.

`COc1cccc(CNCCc2ccc3c(c2)OCO3)c1OC.O=C(O)C(=O)O` showed a solubility (kinetic) above 60.8 µg/mL.
